In a melting point compilation (Tetko et al.; mined from patent text by program, amines drawn as free bases though some values may be those of a salt):

melting point [°C] | SMILES
150 to 152 | COC(=O)c1sccc1OCC(O)CN1CCC(O)(c2ccccc2)CC1 (stereo unspecified)
159 to 161 | C=CCn1nnc2cc3c(=O)n(C(C)Cn4ncnn4)nnc3cc2c1=O (stereo unspecified)
120 to 122 | CCOCC1=C(C(=O)OCC)C(c2cccc([N+](=O)[O-])c2)C(C(=O)OCC)=C(C)N1 (stereo unspecified)
206 | Nc1cccc(C(=O)Nc2ccc(C(=O)N3CCCc4ccccc43)cc2)c1
233 to 234 | CN1CCC(N(C)C(=O)CNS(=O)(=O)c2ccc(Nc3nccc(Nc4ccc(F)cc4)n3)cc2)CC1
213 to 214 | CCOC(=O)c1cn(C2CC2)c2nc(N3CCC(n4ccnn4)CC3)c(F)cc2c1=O
265 to 266 | FC(F)Oc1ccc(-c2nnc(Nc3ccc(Cl)c(Cl)c3)s2)cc1
> 300 | O=S1(=O)N=C2CCCN2c2ccc(Oc3cccc(O)c3)cc21
46.5 to 48 | CC(C)(CO)c1ccc(Br)cc1
110 to 112 | O=C(Nc1ccc(-n2nc(C(F)(F)F)cc2C(F)(F)F)cc1)c1cccnc1F
84 to 96 | Cc1cn(C(C)C(=O)N2CCOCC2)nc1-c1ccccc1 (stereo unspecified)
124 to 125 | c1ccc(-c2noc(COc3ccc(CCCn4ccnc4)cc3)n2)cc1
83 to 86 | Cc1ccc(Sc2nc(Cl)cc(OCCC(C)C)n2)cc1
83 to 86 | O=C1c2ccccc2CCc2ncsc21
165 to 168 | CCCCn1c(=O)[nH]c2ccc(OC)c(OC)c2c1=N
83 to 84 | N#Cc1c2c(nn1-c1ccc(Cl)cc1F)CCCC2
172 to 175 | CC1(C(=O)O)COC2(CC3CCC2(C)C3(C)C)OC1 (stereo unspecified)
243 to 245 | CCOC(=O)c1cn(CC)c2nc(C=O)c(O)cc2c1=O
123 to 124 | O=C(CC(c1ccccc1)c1ccccc1)N1CCN(CCc2cc3ccccc3o2)CC1

melting point [°C] | SMILES
127 | CC(=O)OC1CSC(Oc2cccc(I)c2)C(OC(C)=O)C1OC(C)=O (stereo unspecified)
72 to 73.5 | CCOC(=O)c1c(C(F)(F)F)nc(C(F)(F)Cl)c(C(=O)OC)c1N1CCCC1
108 to 112 | O=C1CCCCc2sccc2N1CCCCN1CCN(c2ncccn2)CC1
109 to 110 | CCOC(=O)c1ccc(Sc2cc3c(cc2C)C(C)(C)CCC3(C)C)cc1
227 to 229 | Cc1nc2cc(/C=C/C(=O)NO)ccc2c(=O)n1CCc1ccccc1
164 | Cn1c(-c2ccccc2S(=O)c2nc3ccccc3[nH]2)nc2ccccc21 (stereo unspecified)
92 to 94 | Cc1cc(SC2CC(=O)N(C)C2=O)cc(C(C)(C)C)c1N (stereo unspecified)
153 to 155 | CC(CC(=O)O)CC(=O)N(c1ccccc1)c1cc(C(C)(C)C)c(O)c(C(C)(C)C)c1 (stereo unspecified)
144 to 146 | O=C1c2ccccc2-c2c1c1ccccc1c(=O)n2CCCCCO
184 | O=C(c1ccc(F)cc1)C1CCN(CCCc2nc3ccccc3c(=O)[nH]2)CC1
56 to 58 | CCCCOC(=O)C(C#N)C(=O)c1ccc(Cl)cc1[N+](=O)[O-] (stereo unspecified)
228 | O=[N+]([O-])c1ccc2nc(Cl)nc(-c3ccccc3Cl)c2c1
131 to 132 | CC(C)NC(=O)c1nc(-c2ccccc2)c(-c2ccc(=O)n(C(C)C)n2)s1
99 to 101 | COc1ccc2c(=O)cc(C(OC)OC)oc2c1
158 to 160 | COc1cc(C#CC(=O)c2ccccc2)cc(OC)c1OC
120 to 121 | CCOC(=O)CNC(=S)NC(Cc1ccc(OC)cc1)=Nc1ccccc1
95 to 96 | Cc1ccc(C)c(C2CC(=O)c3c(C)ccnc3C2)c1 (stereo unspecified)
265 to 270 | Cn1c(=O)[nH]c(=O)n(-c2cc(O)ccc2Br)c1=O
92 to 93 | CCc1c(Oc2ccc(C(F)(F)F)cc2[N+](=O)[O-])n[nH]c1C

SMILES | melting point [°C]
Nc1cc(N)c(Cl)cc1Cl | 138 to 141
COC(=O)c1ccc2c(c1)C(SCCO)c1ccccc1CC2 (stereo unspecified) | 107 to 109
S=P12SP3(=S)SP(=S)(S1)SP(=S)(S2)S3 | 165 to 166
